Where a name gives a salt, the structure may show the parent alone. Read-outs that look alike come from different tables or passages of the source.
Target: human cloned 5-HT6 receptors (Homo sapiens, UniProt P50406)
Assay: biochemical
Format: binding
Set-up: selectivity: reference not given here
[1] = [3H]-LSD, HeLa-5HT6 cell membranes, pH 7.7, 37° C., read-out: pKi (converted)
[2] = selective 5-HT6 receptor antagonist activity

Sequence of human cloned 5-HT6 receptors (P50406 whole entry): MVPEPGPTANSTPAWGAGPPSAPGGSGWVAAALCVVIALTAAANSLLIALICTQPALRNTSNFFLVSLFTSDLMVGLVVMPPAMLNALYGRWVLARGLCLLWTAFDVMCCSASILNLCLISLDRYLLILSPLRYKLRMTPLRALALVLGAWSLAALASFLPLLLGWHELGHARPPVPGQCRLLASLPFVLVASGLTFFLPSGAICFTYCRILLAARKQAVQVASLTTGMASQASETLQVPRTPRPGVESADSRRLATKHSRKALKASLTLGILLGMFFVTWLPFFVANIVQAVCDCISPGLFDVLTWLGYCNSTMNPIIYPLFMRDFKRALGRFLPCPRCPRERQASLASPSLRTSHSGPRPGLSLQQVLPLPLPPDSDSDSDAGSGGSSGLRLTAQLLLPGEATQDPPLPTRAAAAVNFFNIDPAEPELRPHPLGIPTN

Compound | Ki [1] | selectivity [2] | selectivity | Ki (read-out: pKi (converted)) | Ki
COc1ccc(S(=O)(=O)Nc2ccc(F)cc2Cl)cc1N1CCN(C)CC1.Cl [Compound 45, N-(2-Chloro-4-fluorophenyl)-4-methoxy-3-(4-methylpiperazin-1-yl)-benzenesulfonamide hydrochloride] | < 3.16 nM | > 100 | – | – | –
COc1ccc(S(=O)(=O)Nc2ccc(Br)c(C(F)(F)F)c2)cc1N1CCN(C)CC1.Cl [Compound 67, N-(4-Bromo-3-trifluoromethylphenyl)-4-methoxy-3-(4-methylpiperazin-1-yl)-benzenesulfonamide hydrochloride] | < 3.16 nM | > 100 | – | – | –
COc1ccc(S(=O)(=O)Nc2cc(Cl)c(Cl)cc2Cl)cc1N1CCNCC1.Cl [Compound 131, N-(2,4,5-Trichlorophenyl)-4-methoxy-3-piperazin-1-ylbenzenesulfonamide hydrochloride] | < 3.16 nM | > 100 | – | – | –
COc1ccc(S(=O)(=O)Nc2ccccc2SC)cc1N1CCNCC1.Cl [Compound 85, 4-Methoxy-N-(2-methylsulfanylphenyl)-3-piperazin-1-ylbenzenesulfonamide hydrochloride] | < 3.16 nM | > 100 | – | – | –
COc1ccc(S(=O)(=O)Nc2ccccc2OC(F)(F)F)cc1N1CCN(C)CC1.Cl [Compound 32, N-(2-Trifluoromethoxyphenyl)-4-methoxy-3-(4-methylpiperazin-1-yl)-benzenesulfonamide hydrochloride] | < 3.16 nM | > 100 | – | – | –
COc1ccc(S(=O)(=O)N2CCCc3ccc(C(F)(F)F)cc32)cc1N1CCN(C)CC1 [Compound 8, 1-[4-Methoxy-3-(4-methylpiperazin-1-yl)-benzenesulfonyl]-7-trifluoromethyl-1,2,3,4-tetrahydroquinoline] | < 3.16 nM | > 100 | – | – | –
COc1ccc(S(=O)(=O)Nc2ccccc2-c2ccccc2)cc1N1CCNCC1.Cl [Compound 113, N-Biphenyl-2-yl-4-methoxy-3-piperazin-1-ylbenzenesulfonamide hydrochloride] | < 3.16 nM | > 100 | – | – | –
COc1ccc(S(=O)(=O)N2CCCc3ccc(Br)cc32)cc1N1CCNCC1.Cl [Compound 145, 7-Bromo-1-(4-methoxy-3-piperazin-1-ylbenzenesulfonyl)-1,2,3,4-tetrahydroquinoline hydrochloride] | – | – | > 100 | < 3.16 nM | –
COc1ccc(S(=O)(=O)N2CCCc3ccc(C(F)(F)F)cc32)cc1N1CCNCC1 [Compound 29, 1-(4-Methoxy-3-piperizin-1-ylbenzenesulfonyl)-7-trifluoromethyl-1,2,3,4-tetrahydroquinoline hydrochloride] | < 3.16 nM | > 100 | – | – | –
CCc1ccccc1NS(=O)(=O)c1ccc(OC)c(N2CCNCC2)c1.Cl [Compound 88, N-(2-Ethylphenyl)-4-methoxy-3-piperazin-1-ylbenzenesulfonamide hydrochloride] | < 3.16 nM | > 100 | – | – | –
COc1ccc(S(=O)(=O)N2CCCc3c(Cl)cc(Cl)cc32)cc1N1CCN(C)CC1.Cl [Compound 73, 5,7-Dichloro-1-[4-methoxy-3-(4-methylpiperazin-1-yl)benzenesulfonyl]-1,2,3,4-tetrahydroquinoline hydrochloride] | < 3.16 nM | > 100 | – | – | –
C=C(C)c1ccccc1NS(=O)(=O)c1ccc(OC)c(N2CCNCC2)c1.Cl [Compound 104, N-(2-Isopropenylphenyl)-4-methoxy-3-piperazin-1-ylbenzenesulfonamide hydrochloride] | < 3.16 nM | > 100 | – | – | –
COc1ccc(S(=O)(=O)Nc2cccc(C(F)(F)F)c2)cc1N1CCNCC1.Cl [Compound 89, 4-Methoxy-3-piperazin-1-yl-N-(3-trifluoromethylphenyl)benzenesulfonamide hydrochloride] | < 3.16 nM | > 100 | – | – | –
COc1ccc(S(=O)(=O)Nc2ccccc2I)cc1N1CCN(C)CC1.Cl [Compound 53, N-(2-Iodophenyl)-4-methoxy-3-(4-methylpiperazin-1-yl)benzenesulfonamide hydrochloride] | < 3.16 nM | > 100 | – | – | –
COc1ccc(S(=O)(=O)Nc2ccc(C)c(C)c2)cc1N1CCN(C)CC1.Cl [Compound 41, N-(3,4-Dimethylphenyl)-4-methoxy-3-(4-methylpiperazin-1-yl)-benzenesulfonamide hydrochloride] | < 3.16 nM | > 100 | – | – | –
COc1ccc(S(=O)(=O)Nc2cc(Br)ccc2Br)cc1N1CCNCC1.Cl [Compound 100, N-(2,5-Dibromophenyl)-4-methoxy-3-piperazin-1-ylbenzenesulfonamide hydrochloride] | < 3.16 nM | > 100 | – | – | –
COc1ccc(S(=O)(=O)Nc2ccccc2C(C)C)cc1N1CCNCC1.Cl [Compound 79, N-(2-Isopropylphenyl)-4-methoxy-3-piperazin-1-yl-benzenesulfonamide hydrochloride] | – | – | > 100 | – | < 3.16 nM
COc1ccc(S(=O)(=O)N2CCc3cccc(Cl)c3C2)cc1N1CCN(C)CC1.Cl [Compound 44, 8-Chloro-2-[4-methoxy-3-(4-methylpiperazin-1-yl)benzenesulfonyl]-1,2,3,4-tetrahydroisoquinoline hydrochloride] | < 3.16 nM | > 100 | – | – | –
COc1ccc(S(=O)(=O)N2CCc3c(OC)ccc(OC)c3C2)cc1N1CCN(C)CC1.Cl [Compound 21, 5,8-Dimethoxy-2-[4-methoxy-3-(4-methylpiperazin-1-yl)-benzenesulfonyl]-1,2,3,4-tetrahydroisoquinoline hydrochloride] | < 3.16 nM | > 100 | – | – | –
COc1ccc(Cl)cc1NS(=O)(=O)c1ccc(OC)c(N2CCNCC2)c1.Cl [Compound 132, N-(5-Chloro-2-methoxyphenyl)-4-methoxy-3-piperazin-1-ylbenzenesulfonamide hydrochloride] | < 3.16 nM | > 100 | – | – | –
COc1ccc(S(=O)(=O)Nc2ccc(C(C)(C)C)cc2)cc1N1CCNCC1.Cl [Compound 107, N-(4-tert-Butylphenyl)-4-methoxy-3-piperazin-1-ylbenzenesulfonamide hydrochloride] | < 3.16 nM | > 100 | – | – | –
COc1ccc(S(=O)(=O)Nc2ccccc2Br)cc1N1CCNCC1.Cl [Compound 91, N-(2-Bromophenyl)-4-methoxy-3-piperazin-1-ylbenzenesulfonamide hydrochloride] | – | – | > 100 | – | < 3.16 nM
COc1ccc(S(=O)(=O)Nc2cccc(Br)c2)cc1N1CCN(C)CC1.Cl [Compound 3, N-(3-Bromophenyl)-4-methoxy-3-(4-methylpiperazin-1-yl)benzene sulfonamide hydrochloride] | < 3.16 nM | > 100 | – | – | –
C=Cc1ccc(NS(=O)(=O)c2ccc(OC)c(N3CCN(C)CC3)c2)cc1.Cl [Compound 63, 4-Methoxy-3-(4-methylpiperazin-1-yl)-N-(4-vinylphenyl)benzenesulfonamide hydrochloride] | < 3.16 nM | > 100 | – | – | –
COc1ccc(S(=O)(=O)Nc2ccc(Cl)c(C(F)(F)F)c2)cc1N1CCN(C)CC1.Cl [Compound 69, N-(4-Chloro-3-trifluoromethylphenyl)-4-methoxy-3-(4-methylpiperazin-1-yl)-benzenesulfonamide hydrochloride] | < 3.16 nM | > 100 | – | – | –
COc1ccc(S(=O)(=O)Nc2ccc(I)cc2Cl)cc1N1CCN(C)CC1.Cl [Compound 54, N-(2-Chloro-4-iodophenyl)-4-methoxy-3-(4-methylpiperazin-1-yl)-benzenesulfonamide hydrochloride] | < 3.16 nM | > 100 | – | – | –
